Assay results published in patent US20230243812A1, “[…] TISSUE […] METHODS FOR FORMATION AND USE THEREOF” (President and Fellows of Harvard College, priority 2022, published 2023).
Entries after “also recorded” stand apart in the source; their conditions may differ.

Tested on: muscular bilayer tissues of biohybrid fish (human stem cell-derived CMs)
Assay: Antagonistic contraction and swimming performance of self-paced biohybrid fish treated with stretch-activated channel blockers
Type: cell-based
Conditions: for Spontaneous frequencies of treated muscular bilayer tissues (frequency-domain analysis of tail-beat angle) / Empirical probability of antagonistic contraction / Moving (swimming) speed: 250 μM streptomycin or 100 μM Gd3+; for Spontaneous frequencies of treated muscular bilayer tissues (frequency-domain analysis of tail-beat angle): power spectral density; for Empirical probability of antagonistic contraction / Moving (swimming) speed: self-paced biohybrid fish, at least 24 hours
Description: The biohybrid fish was placed in Tyrode's solution (1.8 mM CaCl2, 5 mM glucose, 5 mM Hepes, 1 mM MgCl2, 5.4 mM KCl, 135 mM NaCl, and 0.33 mM NaH2PO4 in deionized water, pH 7.4, at 37° C.; Sigma Aldrich, St. Louis, Mo.) in a 22 cm square chamber (VWR International, Radnor, Pa.) on a hotplate (VWR International, Radnor, Pa.) and temperature was maintained at 35° C. to 37° C. The recording of swimming performance of biohybrid fish was filmed with a sCMOS camera (Pco.edge, PCO AG, Germany) coupled with a zoom camera lens (Thorlabs Inc, Newton, N.J.) at 50 frames per second or a single-lens recorder (AXP55 4K Handycam, Sony, Japan) with a 26.8 mm wide-angle lens at 50 frames per second.
To check the effect of mechanical signaling on the antagonistic contraction of muscular bilayer tissues, the biohybrid fish were treated with 250 μM streptomycin or 100 μM Gd^3+ (both from Sigma-Aldrich, St. Louis, Mo.) before recording, streptomycin or Gd^3+ for at least 24 hours.
Digital videos recorded during locomotion experiments were converted to image stacks using a custom-made Matlab program (24) (R2020b, Mathworks, Natick, Mass.). The head, body, and tail positions of the biohybrid fish were tracked using an image processing software (ImageJ, NIH, Bethesda, Md.). The moving distance of the biohybrid fish was measured during each tail-beat cycle, and the swimming speed was calculated by dividing the cumulative distance travelled by the total time. Tail-beat amplitude was measured as the distance between maximum right and left excursions. Tail-beat angle (θ) was calculated as the body angle difference between chord lines of its anterior body and caudal fin at the maximum right and left excursions. Antagonistic contraction was determined by checking whether a muscle contraction induced the subsequent contraction of the opposite side muscle with any delay or not. The empirical probability of antagonistic contraction was determined by dividing the number of antagonistic contractions by the total number of contractions.

[1] = after Gd3+ treatment versus before

[H]/N=C(/N)N[C@H]1[C@H](O)[C@@H](O)[C@H](O[C@@H]2O[C@@H](C)[C@](O)(C=O)[C@H]2O[C@@H]2O[C@@H](CO)[C@H](O)[C@@H](O)[C@@H]2NC)[C@@H](N/C(N)=N\[H])[C@@H]1O [streptomycin]
Spontaneous frequencies of treated muscular bilayer tissues (frequency-domain analysis of tail-beat angle): not harmonic
Empirical probability of antagonistic contraction: disrupted antagonistic contractions; also recorded: sensitive; also recorded: reduced the chance of antagonistic muscle contraction; also recorded: significantly decreased
Moving (swimming) speed: reduced

[Gd+3] [Gd^3+, gadolinium]
Spontaneous frequencies of treated muscular bilayer tissues (frequency-domain analysis of tail-beat angle): not harmonic
Reduction in Re (Reynolds number) [1]: 80.8%
Reduction in Sw (Swimming number) [1]: 40.6%
Empirical probability of antagonistic contraction: disrupted antagonistic contraction; also recorded: sensitive; also recorded: significantly decreased
Moving (swimming) speed: reduced
Empirical probability of antagonistic contraction (listed as Gd3+): reduced the chance of antagonistic muscle contraction
